Data set [1] is described as follows: Solubility in water of other salts of Compound II. The data set is classed as physicochemical.
Data set [2] is described as follows: Solubility at room temperature, manual dilution combined with visual observation. The data set is classed as physicochemical. To be noted: for solubility: room temperature. The method, then:
The solubility was tested in various solvents for palmitoyl-L-prolyl-L-prolyl-glycyl-L-tyrosine (Compound II). The solubility test was performed by manual dilution combined with visual observation.
The solubility was tested at room temperature in various solvents for Compound I. In addition, the solubility test was performed by manual dilution combined with visual observation. Specifically, 2 mg of Compound I was added to a 1.5 mL HPLC vial and continuously stirred at ambient temperature while the solvent was gradually added.

Data set [3] is described as follows: Solubility by shaking at 25° C., filtration and HPLC of the filtrate. The data set is classed as physicochemical. On the procedure: The solubility was measured by the following method. An appropriate amount of sample was placed in a 1.5 mL HPLC vial, and then 1.0 mL of solvent was added. The HPLC vial was shaken at 25° C. at a speed of 700 rpm, then the slurry was filtered, and the filtrate was analyzed by HPLC. In this case, the limit of quantification (LOQ) was 2 μg/mL.
In order to increase the solubility of palmitoyl-L-prolyl-L-prolyl-glycyl-L-tyrosine (Compound II) in water, the amorphous solid dispersions of Compound II were prepared, and then the solubility was measured.
In order to increase the solubility of palmitoyl-L-prolyl-L-prolyl-glycyl-L-tyrosine (Compound II) in water, a surfactant such as sodium lauryl sulfate (SLS) was added, and the solubility was measured.

For data set [4], the system named is interleukin-6. To be noted: cited from earlier work.
Data set [5] deals with NF-κB. Conditions: cited from earlier work.
The nature of data set [6]: Solid-form observation of the disodium salt (hygroscopicity). It counts as physicochemical. To be noted: could not be maintained in the form of the solid powder. On the procedure: In the method for preparing Compound I, an excess of NaOH (for example; 4 equivalents) was added to prepare disodium palmitoyl-L-prolyl-L-prolyl-glycyl-L-tyrosinate.
Data set [7] is described as follows: Stability test: impurities by HPLC after storage. It counts as physicochemical. On the procedure:
After the dosage forms prepared in the present invention were stored for a period of time in a long-term storage stability condition (25° C./60% RH) or an accelerated stability condition (40° C./75% RH), the content of individual impurities or total impurities was measured. The impurities were measured using a validated HPLC analysis method. The specific conditions are as follows.

The mark [8] stands for this setting: 1,4-dioxane, 1,4-dioxane, read-out: Solubility.
Where [9] appears, read: 1-butanol, read-out: Solubility.
Setting [10] is: 2-methyl tetrahydrofuran, read-out: Solubility.
The mark [11] stands for this setting: ACN-H2O (1:1), read-out: Solubility.
Setting [12] is: N-methyl pyrrolidone, read-out: Solubility.
Where [13] appears, read: THF-H2O (1:1), read-out: Solubility.
The mark [14] stands for this setting: acetone-H2O (1:2), read-out: Solubility.
Where [15] appears, read: acetonitrile, read-out: Solubility.
The mark [16] stands for this setting: cyclohexane, read-out: Solubility.
Where [17] appears, read: ethanol-H2O (1:1), read-out: Solubility.
The mark [18] stands for this setting: ethanol-H2O (3:1), read-out: Solubility.
Where [19] appears, read: ethyl acetate, read-out: Solubility.
Setting [20] is: isopropyl acetate, read-out: Solubility.
The mark [21] stands for this setting: isopropyl alcohol, read-out: Solubility.
The mark [22] stands for this setting: methanol-H2O (1:1), read-out: Solubility.
Where [23] appears, read: methanol-H2O (3:1), read-out: Solubility.
Setting [24] is: methyl ethyl ketone, read-out: Solubility.
The mark [25] stands for this setting: methyl isobutyl ketone, read-out: Solubility.
Setting [26] is: methyl t-butyl ether, read-out: Solubility.
Where [27] appears, read: tetrahydrofuran, read-out: Solubility.
[28] abbreviates: SGF (pH = 1.2), 25° C., LOQ = 2 μg/mL.

Converted amounts (≈) assume the structure as drawn. Structures can show the parent of a compound that is named as a salt. Where a SMILES comes first, the peptide text is derived from it. The star is where a group is joined. Palmitoyl = CCCCCCCCCCCCCCCC(=O)*

By solubility is commonly meant the concentration that dissolves in the medium under given conditions.

With `CCCCCCCCCCCCCCCC(=O)N1CCC[C@H]1C(=O)N1CCC[C@H]1C(=O)NCC(=O)N[C@@H](Cc1ccc(O)cc1)C(=O)O` [Meglumine Salt] (Palmitoyl-PPGY-OH), the solubility in data set [1] (read-out: Solubility) was below 10000 µg/mL.

With `CCCCCCCCCCCCCCCC(=O)N1CCC[C@H]1C(=O)N1CCC[C@H]1C(=O)NCC(=O)N[C@@H](Cc1ccc(O)cc1)C(=O)O` [Compound II, Palmitoyl-L-prolyl-L-prolyl-glycyl-L-tyrosine] (Palmitoyl-PPGY-OH), the solubility was below 1000 µg/mL in data set [2] (setting [8]); below 1000 µg/mL in data set [2] (setting [9]); below 1000 µg/mL in data set [2] (setting [10]); below 1000 µg/mL in data set [2] (setting [11]); 1000 to 5000 µg/mL in data set [2] (DMF, read-out: Solubility); 10000 to 25000 µg/mL in data set [2] (DMSO, read-out: Solubility). Also, the solubility in data set [2] (setting [12]) is 1000 to 5000 µg/mL; in data set [2] (setting [13]) it was 1000 to 5000 µg/mL; in data set [2] (Water), below 1000 µg/mL; in data set [2] (setting [14]) it was below 1000 µg/mL; in data set [2] (acetone, read-out: Solubility) it was below 1000 µg/mL; in data set [2] (setting [15]), below 1000 µg/mL. For the same compound, the solubility in data set [2] (setting [16]) was below 1000 µg/mL; in data set [2] (setting [17]) it was below 1000 µg/mL; in data set [2] (setting [18]), below 1000 µg/mL; in data set [2] (ethanol, read-out: Solubility), below 1000 µg/mL; in data set [2] (setting [19]), below 1000 µg/mL; in data set [2] (heptane, read-out: Solubility) it was below 1000 µg/mL. The solubility is below 1000 µg/mL in data set [2] (setting [20]); below 1000 µg/mL in data set [2] (setting [21]); below 1000 µg/mL in data set [2] (setting [22]); below 1000 µg/mL in data set [2] (setting [23]); 1000 to 5000 µg/mL in data set [2] (methanol, read-out: Solubility); below 1000 µg/mL in data set [2] (setting [24]). Further, the solubility in data set [2] (setting [25]) is below 1000 µg/mL; in data set [2] (setting [26]) it was below 1000 µg/mL; in data set [2] (setting [27]), below 1000 µg/mL; in data set [2] (toluene, read-out: Solubility), below 1000 µg/mL; in data set [2] (water, read-out: Solubility) it was below 1000 µg/mL; in data set [3] (1% Poloxamer 188 added, SGF (pH = 1.2), LOQ = 2 μg/mL), “<LOQ”. Moreover, the solubility result in data set [3] (1% Poloxamer 188 added, Water, LOQ = 2 μg/mL) is “<LOQ”; in data set [3] (5% Poloxamer 188 added, SGF (pH = 1.2), LOQ = 2 μg/mL), “<LOQ”; in data set [3] (5% Poloxamer 188 added, Water, LOQ = 2 μg/mL), “<LOQ”; in data set [3] (FaSSIF with 1% Poloxamer 188, 1% Poloxamer 188 added, FaSSIF, LOQ = 2 μg/mL, read-out: Solubility), 10 µg/mL (≈ 14.9 µM); in data set [3] (FaSSIF with 1% SLS, 1% SLS added, FaSSIF, LOQ = 2 μg/mL, read-out: Solubility), 1990 µg/mL (≈ 2970 µM); in data set [3] (FaSSIF with 5% Poloxamer 188, 5% Poloxamer 188 added, FaSSIF, LOQ = 2 μg/mL, read-out: Solubility), 10 µg/mL (≈ 14.9 µM). The solubility is 5090 µg/mL (≈ 7590 µM) in data set [3] (FaSSIF with 5% SLS, 5% SLS added, FaSSIF, LOQ = 2 μg/mL, read-out: Solubility); 10 µg/mL (≈ 14.9 µM) in data set [3] (FaSSIF, 25° C., LOQ = 2 μg/mL); “<LOQ” in data set [3] (setting [28]); 90 µg/mL (≈ 134 µM) in data set [3] (SGF with 1% SLS, pH 1.2, 1% SLS added, SGF (pH = 1.2), LOQ = 2 μg/mL, read-out: Solubility); 380 µg/mL (≈ 566 µM) in data set [3] (SGF with 5% SLS, pH 1.2, 5% SLS added, SGF (pH = 1.2), LOQ = 2 μg/mL, read-out: Solubility); “<LOQ” in data set [3] (Water, 25° C., LOQ = 2 μg/mL). The solubility was 470 µg/mL (≈ 701 µM) in data set [3] (water with 1% SLS, 1% SLS added, Water, LOQ = 2 μg/mL, read-out: Solubility); 1920 µg/mL (≈ 2860 µM) in data set [3] (water with 5% SLS, 5% SLS added, Water, LOQ = 2 μg/mL, read-out: Solubility); below 2 µg/mL in data set [3] (water, lower than the limit of quantification (LOQ), read-out: water solubility). Moreover, in data set [4], the “inhibiting the expression of interleukin-6” value is given as “excellent effect”. The “inhibiting the activity of NF-κB” value in data set [5] is recorded as “excellent effect”.

In the case of `CCCCCCCCCCCCCCCC(=O)N1CCC[C@H]1C(=O)N1CCC[C@H]1C(=O)NCC(=O)N[C@@H](Cc1ccc(O)cc1)C(=O)O` [Micronized Compound II] (Palmitoyl-PPGY-OH), the solubility in data set [3] (FaSSIF, 25° C., LOQ = 2 μg/mL) was 50 µg/mL (≈ 74.5 µM); in data set [3] (setting [28]), “<LOQ”; in data set [3] (Water, 25° C., LOQ = 2 μg/mL), “<LOQ”.

Turning to `CCCCCCCCCCCCCCCC(=O)N1CCC[C@H]1C(=O)N1CCC[C@H]1C(=O)NCC(=O)N[C@@H](Cc1ccc([O-])cc1)C(=O)[O-].[Na+].[Na+]` [Disodium Palmitoyl-L-prolyl-L-prolyl-glycyl-L-tyrosinate] (Palmitoyl-PPGY-OH), the Hygroscopicity entry in data set [6] is listed as “very hygroscopic”.

Take `CCCCCCCCCCCCCCCC(=O)N1CCC[C@H]1C(=O)N1CCC[C@H]1C(=O)NCC(=O)N[C@@H](Cc1ccc(O)cc1)C(=O)O` [Arginine Salt] (Palmitoyl-PPGY-OH): the solubility in data set [1] was below 10000 µg/mL.

With `CCCCCCCCCCCCCCCC(=O)N1CCC[C@H]1C(=O)N1CCC[C@H]1C(=O)NCC(=O)N[C@@H](Cc1ccc(O)cc1)C(=O)[O-].[Na+]` [Compound I, sodium palmitoyl-L-prolyl-L-prolyl-glycyl-L-tyrosinate] (Palmitoyl-PPGY-OH), the solubility in data set [2] (setting [8]) is 33300 to 50000 µg/mL; in data set [2] (setting [9]) it was 50000 to 100000 µg/mL; in data set [2] (setting [10]), above 100000 µg/mL; in data set [2] (setting [11]) it was 50000 to 100000 µg/mL; in data set [2] (DMF, read-out: Solubility), 20000 to 33300 µg/mL; in data set [2] (DMSO, read-out: Solubility), 50000 to 100000 µg/mL. The solubility in data set [2] (setting [12]) was 50000 to 100000 µg/mL; in data set [2] (setting [13]), 50000 to 100000 µg/mL; in data set [2] (setting [14]) it was 50000 to 100000 µg/mL; in data set [2] (acetone, read-out: Solubility) it was below 1000 µg/mL; in data set [2] (setting [15]), below 1000 µg/mL; in data set [2] (setting [16]), below 1000 µg/mL. The solubility is 50000 to 100000 µg/mL in data set [2] (setting [17]); 50000 to 100000 µg/mL in data set [2] (setting [18]); 50000 to 100000 µg/mL in data set [2] (ethanol, read-out: Solubility); below 1000 µg/mL in data set [2] (setting [19]); below 1000 µg/mL in data set [2] (heptane, read-out: Solubility); below 1000 µg/mL in data set [2] (setting [20]). For the same compound, the solubility is 50000 to 100000 µg/mL in data set [2] (setting [21]); above 100000 µg/mL in data set [2] (setting [22]); above 100000 µg/mL in data set [2] (setting [23]); above 100000 µg/mL in data set [2] (methanol, read-out: Solubility); 3300 to 5000 µg/mL in data set [2] (setting [24]); 1200 to 1400 µg/mL in data set [2] (setting [25]). Also, the solubility was below 1000 µg/mL in data set [2] (setting [26]); above 100000 µg/mL in data set [2] (setting [27]); 50000 to 100000 µg/mL in data set [2] (toluene, read-out: Solubility); at least 100000 µg/mL in data set [2] (water, read-out: Solubility). The “water solubility of Compound I compared to that of Compound II in an acid form” value in data set [2] (water) was “tens of thousands of times or more”. Also, the “Stability of Compound I” value is “stable” in data set [7] (in capsules of Table 26, 1 month, accelerated stability condition 40° C./75% RH); “stable” in data set [7] (in capsules of Table 31, 1 month, accelerated stability condition 40° C./75% RH); “stable” in data set [7] (in capsules of Table 36, 6 months, long-term storage stability condition 25° C./60% RH); “stable” in data set [7] (in capsules of Table 37, 6 months, accelerated stability condition 40° C./75% RH).
